Results from patent publication US7601494B2, “Method of screening candidate compounds for susceptibility to biliary excretion” (The University of North Carolina at Chapel Hill, priority 1999, dated 2009).

Assays:
[1] = test system: Mrp2; assay: Immunoblot analysis of Mrp2 expression in siRNA-treated SCRH; format: cell-based, rat; conditions: vs siFL-transfected and non-transfected cells
Protocol: (§1) HepG2 cells were maintained in Dulbecco's modified Eagle's medium/F-12 plus 10% FBS. Rat hepatocytes were isolated from male Wistar rats (220-300g) by in situ collagenase perfusion (Annaert et al., Drug Metab Dispos 29:1277-1283, 2001). Cells were seeded at a density of 1.5×10^6 cells per well onto polystyrene 6-well plates pre-coated with rat tail type I collagen; a top layer of gelled collagen was overlaid 24 hr after plating. Rat hepatocyte cultures were maintained in Dulbecco's modified Eagle's medium supplemented with 0.1 μM dexamethasone and 0.1% ITS culture supplement (6.25 mg/mL insulin, 6.25 mg/mL transferrin, 6.25 μg/mL selenous acid, 5.35 mg/mL linoleic acid, and […]). Medium was changed every 24 hr.
(§2) HepG2 cells were seeded at a density of 2×10^5 cells per well onto 12-well plates 24 hr before transfection. A mixture of 100 ng firefly luciferase expression plasmid (PGL3-FL) and 100 ng Renilla luciferase expression plasmid (PRL-TK) and various amounts of firefly luciferase siRNA were used per well. Transfections of SCRH were performed at 20 hr after plating, unless specifically indicated. siRNA (2 μg unless specified) was used per well in 6-well plates. siRNA and DNA were formulated for transfection using […]™ transfection reaction kit (QIAGEN Inc. Valencia, Calif. USA). Briefly, siRNA was condensed in Enhancer EC at a ratio of 1:2 (μg of total RNA and/or DNA : μl of Enhancer), and formulated with TransMessenger at a ratio of 1:4 (μg of RNA and /or DNA: μl of TransMessenger) and then incubated with cells. For transfections of HepG2 cells, medium was changed after an overnight incubation with siRNA. For transfections of SCRH, cells were incubated with siRNA for 4 hr and then were overlaid with collagen. siRNA delivery into hepatocytes was more efficient before overlay of the top collagen layer. The effect of transfection was examined 48 hr later.
(§3) Cells were harvested 48 hr post transfection and lysed in 1% SDS, 1 mM EDTA plus COMPLETE™ protease inhibitor cocktail (Roche Diagnostics, Mannheim, Germany). The protein concentration of the clear cell lysate was determined with the BCA Protein Assay Reagent Kit (Pierce Biotech, Inc. Rockford, Ill.). […] of total protein per lane was resolved by electrophoresis on NuPAGE 4-12% Bis-Tris Gel (Invitrogen Life Technology, Carlsbad, Calif. USA) and were transferred onto polyvinylidone difluoride membranes. The following antibodies were used to probe the membranes: anti-Mrp2 (M2111-6, Alexis Biochemicals, San Diego, Calif. USA); anti-Mrp3 (kind gift from Dr. Yuichi Sugiyama); anti-Radixin (Chemicon International, Inc. Temecula, Calif. USA), anti-β-actin (MAB1501, Chemicon).

[2] = test system: Mrp3; assay: Immunoblot analysis of Mrp3 expression in siRNA-treated SCRH; format: cell-based, rat; conditions: vs siFL-transfected and non-transfected cells
Protocol: as §1, §2, §3

[3] = test system: SCRH; assay: Lactate dehydrogenase activity assay of culture medium of SCRH; format: cell-based, rat; conditions: after three days in culture, mean±SEM
Protocol: Prior to the functional studies, cell culture medium was assayed for lactate dehydrogenase activity, an intracellular enzyme whose leakage into extracellular medium is inversely related to cell viability. Lactate dehydrogenase activity was assayed with kit 500-C (Sigma Diagnostics, St. Louis, Mo. USA) utilizing lactate dehydrogenase-catalyzed reduction of pyruvate to lactate, subsequent conjugation of remaining pyruvate with 2,4-dinitrophenylhydrazine, and spectrophotometric detection (λ=500 nm) of the pyruvate-2,4-dinitrophenylhydrazone conjugate at alkaline pH (Cabaud and Wroblewski, Am. J. Clin. Pathol. 30:234-236,1958).

[4] = biological target: T1, Mrp3 (Rattus norvegicus, UniProt O88563); assay: Assessment of Mrp3 function with CDF disposition in siMrp3-treated SCRH (30 min washout); format: cell-based
T1 construct: endogenous in cells; host or cells: sandwich-cultured primary hepatocytes of male Wistar rats
Protocol: Cells were rinsed twice with Hanks' balanced salt solution (HBSS, 2 mL, 37° C.) and incubated (10 min, 1.5 mL, 37° C.) with 2 μM CDF diacetate (Molecular Probes, Eugene, Oreg. USA), and were then rinsed twice with cold HBSS (2 mL, 4° C.). Cell images were taken with a Axiovert 100TV inverted microscope. Accumulation of CDF in cells+bile canaliculi and cells only was assessed in SCRH pre-incubated (10 min, 2 mL, 37° C.) with standard HBSS and Ca^2+-free HBSS, respectively (Liu et al., J. Pharmacol. Exp. Ther. 289:1592-1599, 1999). SCRH were subsequently incubated with CDF diacetate (10 min, 2 mL, 37° C.). In siMrp2-treated SCRH, cells were then rinsed four times with cold HBSS (2 mL, 4° C.) and lysed (1 mL, 0.5% TritonX-100 in phosphate-buffered saline). In siMrp3-treated SCRH, following incubation with CDF diacetate, cells were rinsed four times with warm HBSS (2 mL, 37° C.) and were incubated with HBSS (30 min, HBSS changed every 10 min, 2 mL, 37° C.) to allow time for intracellular CDF to undergo appreciable basolateral excretion prior to rinsing the SCRH four times with cold HBSS and lysing the cells (as above). CDF fluorescence in lysate was quantified with fluorescence spectrophotometry (λex=485 nm, λem=[…]); protein concentration was determined with the BCA method kit (as above).

T1 sequence (O88563 whole entry): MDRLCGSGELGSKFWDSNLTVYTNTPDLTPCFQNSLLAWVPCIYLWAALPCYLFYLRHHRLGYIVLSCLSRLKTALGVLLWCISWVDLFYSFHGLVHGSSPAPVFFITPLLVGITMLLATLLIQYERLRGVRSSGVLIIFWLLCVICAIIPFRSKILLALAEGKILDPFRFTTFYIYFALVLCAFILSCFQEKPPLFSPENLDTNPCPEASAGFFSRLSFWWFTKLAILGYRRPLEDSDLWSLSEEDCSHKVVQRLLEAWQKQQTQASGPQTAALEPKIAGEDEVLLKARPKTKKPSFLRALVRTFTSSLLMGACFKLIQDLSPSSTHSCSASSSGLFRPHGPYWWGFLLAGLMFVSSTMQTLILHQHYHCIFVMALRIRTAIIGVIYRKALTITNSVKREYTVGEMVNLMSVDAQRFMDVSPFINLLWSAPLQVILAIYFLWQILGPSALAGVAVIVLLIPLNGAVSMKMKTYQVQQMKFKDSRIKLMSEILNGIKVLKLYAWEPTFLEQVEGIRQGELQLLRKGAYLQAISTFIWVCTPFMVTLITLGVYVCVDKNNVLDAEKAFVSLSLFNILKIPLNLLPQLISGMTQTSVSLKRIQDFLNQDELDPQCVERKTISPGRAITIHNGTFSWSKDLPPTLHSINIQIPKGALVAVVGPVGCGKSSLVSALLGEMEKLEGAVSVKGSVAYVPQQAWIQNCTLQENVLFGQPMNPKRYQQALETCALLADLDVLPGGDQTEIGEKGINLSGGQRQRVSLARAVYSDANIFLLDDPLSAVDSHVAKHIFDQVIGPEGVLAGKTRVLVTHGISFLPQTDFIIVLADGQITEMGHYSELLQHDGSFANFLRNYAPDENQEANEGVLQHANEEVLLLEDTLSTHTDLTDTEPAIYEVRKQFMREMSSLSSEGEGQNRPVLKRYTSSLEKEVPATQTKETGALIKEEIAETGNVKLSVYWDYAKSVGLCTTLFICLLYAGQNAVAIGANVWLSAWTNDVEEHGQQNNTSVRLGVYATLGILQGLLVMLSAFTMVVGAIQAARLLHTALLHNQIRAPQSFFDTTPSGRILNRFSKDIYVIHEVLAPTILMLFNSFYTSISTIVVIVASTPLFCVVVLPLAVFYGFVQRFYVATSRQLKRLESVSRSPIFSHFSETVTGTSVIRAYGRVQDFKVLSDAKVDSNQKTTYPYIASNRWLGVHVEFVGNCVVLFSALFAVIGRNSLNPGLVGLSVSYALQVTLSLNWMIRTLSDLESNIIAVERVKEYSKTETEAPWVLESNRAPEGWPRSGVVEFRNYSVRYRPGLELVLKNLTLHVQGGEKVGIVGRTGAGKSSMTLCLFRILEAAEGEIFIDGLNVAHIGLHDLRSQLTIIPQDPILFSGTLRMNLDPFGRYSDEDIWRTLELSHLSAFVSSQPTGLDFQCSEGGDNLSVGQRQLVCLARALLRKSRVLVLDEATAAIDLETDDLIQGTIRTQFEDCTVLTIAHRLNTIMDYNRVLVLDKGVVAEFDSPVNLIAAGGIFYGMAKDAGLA

siMrp3: siRNA targeting rat Mrp3, GGUCCAAGGACCUGCCUCCCA (SEQ ID NO: 6), nucleotides 1950-1970 of Mrp3 cDNA (listed as RNA, chemistry not given here)
expression of Mrp2 (in words) [1]: no change in expression of Mrp2 | Mrp3 protein expression (in words) [2]: a decrease in Mrp3 protein expression | lactate dehydrogenase activity [3]: 87±3 % non-transfected control SCRH | increase of biliary excretion index of CDF ([4]; transfected SCRH, after 30 min washout, vs control): ~60% | biliary excretion index of CDF ([4]; transfected SCRH, after 30 min washout, control 36.2%): 57.5% | CDF accumulation in cells only ([4]; transfected SCRH, after 30 min washout, non-transfected control 15.6±4.0): 13.7±2.2 pmol/mg protein/10 min | CDF accumulation in cells+bile canaliculi ([4]; transfected SCRH, after 30 min washout, non-transfected control 24.4±4.3): 32.3±2.5 pmol/mg protein/10 min | CDF fluorescence in canalicular networks (in words) ([4]; vs siFL-transfected or non-transfected cells): more intense
